Test results reported in US11701370B2, “Phosphonium ion channel blockers and methods for use” (Nocion Therapeutics, Inc., priority 2019, dated 2023).
Where a name gives a salt, the structure may show the parent alone.

How the values were obtained:
NaV1.7 [1] = target: T1, NaV1.7 (Homo sapiens, UniProt Q15858); assay: External block: extracellular inhibition of NaV1.7 current, whole cell patch clamp; type: cell-based; settings: compound in external solution; for inhibition at 10 µM: 10 μM test concentration; for inhibition at 3 µM: 3 μM test concentration
T1 construct: expressed in transfected cells; tetracycline-inducible, kept under hygromycin and blasticidin selection
Description: (§1) NaV1.7 was expressed upon induction with tetracycline. Cells were cultured in DMEM containing 10% dialyzed Fetal Bovine Serum (VWR, Radnor, Pa.), 1% Glutamax (VWR, Radnor, Pa.), 1% Penicillin-Streptomycin (VWR, Radnor, Pa.), 100 mg/L Hygromycin (Thermo Fisher Scientific, Waltham, Mass. and 5 mg/L Blasticidin (Alfa Aesar, Haverhill, Mass.). Cells were grown and maintained at 37° C. in a humidified environment containing 10% CO2 in air. Cells were detached from the culture flask for passage and harvested using 0.05% Trypsin-EDTA (Thermo Fisher Scientific, Waltham, Mass.). To induce NaV1.7, cells were induced with tetracycline (0.1-1 μg/mL, IBI Scientific, Peosta, Iowa) the day before recording and plated onto 24-well plates. Cells were washed with DPBS (VWR, Radnor, Pa.), trypsinized and then triturated five times in 10 mL of growth media to break apart cell aggregates. For one 24-well plate, 2 mL of cell suspension was mixed with 23 mL of fresh growth media and 0.1-1 μg/mL tetracycline added. 1 ml of mixed media with cells was then added to each well of a 24-well plate, with a 12 mm coverslip already placed in the bottom of the well. Cells were then incubated in 37° C. and 10% CO2 overnight.
(§2) The intracellular solution contained the following (in mM) CsCl 135, NaCl 10, EGTA 10, HEPES 10, MgCl22, adjusted to pH 7.2 with CsOH. The external solution was a normal Ringer solution containing (in mM) NaCl 155, HEPES 10, glucose 10, KCl 3.5, CaCl2 1.5, MgCl2 1 adjusted to pH 7.4 with NaOH. CsCl is from Alfa Aesar, Haverhill, Mass. All other chemicals are from Sigma-Aldrich, St. Louis, Mo. In order to test the degree of internal block by test compounds the compounds were dissolved in internal solution at the indicated test concentration. […] In order to test the degree of external block by test compounds the compounds were dissolved in external solution at the indicated test concentration.
(§3) 18-24 hours after cells were induced with tetracycline, coverslips were placed into a chamber filled with Normal Ringer solution at room temperature and the chamber placed on a microscope. Pipettes were pulled from borosilicate glass on a P97 puller (Sutter Instrument, Novato, Calif.) and polished with a MF-830 Microforge (Narishige International USA, Inc, Amityville, N.Y.) to have a resistance of 1.5-2.5 MΩ when filled with CsCl internal solution at room temperature. Healthy cells (those that are round and translucent with no visible blemishes) were chosen for seal formation. A seal was formed between the pipette and the cell, and a brief pulse of suction was used to “break in” and establish the whole-cell configuration. The membrane potential was held at −100 mV before the voltage protocol began. Only cells with series resistance between 1.5-5 MΩ were retained for analysis. The voltage protocol was as follows: Cells were held at −100 mV for 12 ms followed by a hyperpolarizing step to −105 mV for 12 ms to monitor the leak. Cells were then stepped back to −100 mV for 40 ms. Cells were then depolarized to −20 mV for 10 ms and then returned to −100 mV for 26 ms (FIG. 1).
Once the recording was started, the voltage protocol was run at 30 second intervals for 5 minutes to get a stable baseline. This is followed by 5 Hz stimulation of the same voltage protocol run until the end of experiment. […] The test compound is added for 5 minutes before washing out with normal Ringer's solution. Currents were recorded using PatchMaster software with Heka EPC10 (HEKA Electronics, Lambrecht, Germany). Only cells with inward current amplitudes at −20 mV between 400 pA and 4 nA were accepted. In addition, cells having leak currents greater than 10% of their current amplitudes were discarded.
(§4) The data was plotted using the Patchmaster software (HEKA Electronics, Lambrecht, Germany) and analyzed by plotting the minimum current during the voltage step to −20 mV (peak inward current) as a function of time. […]

NaV1.7 [2] = target: T1, NaV1.7; assay: Internal block: intracellular inhibition of NaV1.7 current, whole cell patch clamp; type: cell-based; settings: compound in internal solution; for inhibition at 10 µM: 10 μM test concentration; for inhibition at 3 µM: 3 μM test concentration
Description: as §1, §2, §3
Once the recording was started, the voltage protocol was run at 30 second intervals for 5 minutes to get a stable baseline. This was followed by four 30-second periods of 5 Hz stimulation of the same voltage protocol separated by 1 minute of rest which was then followed by 0.33 Hz stimulation after the last train. Currents were recorded using PatchMaster software with Heka EPC10 (HEKA Electronics, Lambrecht, Germany). Only cells with inward current amplitudes at −20 mV between 400 pA and 4 nA were accepted. In addition, cells having leak currents greater than 10% of their current amplitudes were discarded.
as §4

[3] = PAMPA membrane permeability assay (artificial lipid membrane, passive diffusion); type: in vitro ADME; settings: pH 7.4 buffer, GIT lipid, 4 hours incubation
Description: The PAMPA assay (pION, Inc., Woburn Mass.) was used to determine the ability of compounds of the invention to cross an artificial lipid membrane by passive diffusion. Test compounds were dissolved in DMSO (10 mM) and diluted 200-fold in buffer (pION Inc., pH 7.4) to provide 50 uM stock solutions. Buffer (150 μL) was added to a UV blank plate and stock solutions (150 μL) were transferred to a UV reference plate. The blank and reference spectrum were read using a spectrophotometer. Stock solutions (200 μL) were added to the donor plate of the PAMPA sandwich plate and an accept plate painted with GIT lipid (pION Inc, 5 μL) was placed on top. Buffer (200 μL) was added to the acceptor plate and the PAMPA sandwich plate was incubated for 4 hours. Aliquots (150 μL) from the acceptor plate were added to a UV plate and read as acceptor spectrum. Aliquots (150 μL) of the donor solutions were added to a UV analysis plate and read as donor spectrum. The permeability coefficient of test compounds was calculated using PAMPA Explorer™ software (version 3.5.0.4) based on the AUC of the reference plate, the donor plate, and the acceptor plate.
The PAMPA permeability results (10^−6 cm/s) of representative compounds are reported as “+” (<0.1 10^−6 cm/s), “++” (0.1-2.0 10^−6 cm/s), “+++” (2.0-10.010^−6 cm/s) or “++++” (>10.0 10^−6 cm/s).

T1 sequence (Q15858 whole entry): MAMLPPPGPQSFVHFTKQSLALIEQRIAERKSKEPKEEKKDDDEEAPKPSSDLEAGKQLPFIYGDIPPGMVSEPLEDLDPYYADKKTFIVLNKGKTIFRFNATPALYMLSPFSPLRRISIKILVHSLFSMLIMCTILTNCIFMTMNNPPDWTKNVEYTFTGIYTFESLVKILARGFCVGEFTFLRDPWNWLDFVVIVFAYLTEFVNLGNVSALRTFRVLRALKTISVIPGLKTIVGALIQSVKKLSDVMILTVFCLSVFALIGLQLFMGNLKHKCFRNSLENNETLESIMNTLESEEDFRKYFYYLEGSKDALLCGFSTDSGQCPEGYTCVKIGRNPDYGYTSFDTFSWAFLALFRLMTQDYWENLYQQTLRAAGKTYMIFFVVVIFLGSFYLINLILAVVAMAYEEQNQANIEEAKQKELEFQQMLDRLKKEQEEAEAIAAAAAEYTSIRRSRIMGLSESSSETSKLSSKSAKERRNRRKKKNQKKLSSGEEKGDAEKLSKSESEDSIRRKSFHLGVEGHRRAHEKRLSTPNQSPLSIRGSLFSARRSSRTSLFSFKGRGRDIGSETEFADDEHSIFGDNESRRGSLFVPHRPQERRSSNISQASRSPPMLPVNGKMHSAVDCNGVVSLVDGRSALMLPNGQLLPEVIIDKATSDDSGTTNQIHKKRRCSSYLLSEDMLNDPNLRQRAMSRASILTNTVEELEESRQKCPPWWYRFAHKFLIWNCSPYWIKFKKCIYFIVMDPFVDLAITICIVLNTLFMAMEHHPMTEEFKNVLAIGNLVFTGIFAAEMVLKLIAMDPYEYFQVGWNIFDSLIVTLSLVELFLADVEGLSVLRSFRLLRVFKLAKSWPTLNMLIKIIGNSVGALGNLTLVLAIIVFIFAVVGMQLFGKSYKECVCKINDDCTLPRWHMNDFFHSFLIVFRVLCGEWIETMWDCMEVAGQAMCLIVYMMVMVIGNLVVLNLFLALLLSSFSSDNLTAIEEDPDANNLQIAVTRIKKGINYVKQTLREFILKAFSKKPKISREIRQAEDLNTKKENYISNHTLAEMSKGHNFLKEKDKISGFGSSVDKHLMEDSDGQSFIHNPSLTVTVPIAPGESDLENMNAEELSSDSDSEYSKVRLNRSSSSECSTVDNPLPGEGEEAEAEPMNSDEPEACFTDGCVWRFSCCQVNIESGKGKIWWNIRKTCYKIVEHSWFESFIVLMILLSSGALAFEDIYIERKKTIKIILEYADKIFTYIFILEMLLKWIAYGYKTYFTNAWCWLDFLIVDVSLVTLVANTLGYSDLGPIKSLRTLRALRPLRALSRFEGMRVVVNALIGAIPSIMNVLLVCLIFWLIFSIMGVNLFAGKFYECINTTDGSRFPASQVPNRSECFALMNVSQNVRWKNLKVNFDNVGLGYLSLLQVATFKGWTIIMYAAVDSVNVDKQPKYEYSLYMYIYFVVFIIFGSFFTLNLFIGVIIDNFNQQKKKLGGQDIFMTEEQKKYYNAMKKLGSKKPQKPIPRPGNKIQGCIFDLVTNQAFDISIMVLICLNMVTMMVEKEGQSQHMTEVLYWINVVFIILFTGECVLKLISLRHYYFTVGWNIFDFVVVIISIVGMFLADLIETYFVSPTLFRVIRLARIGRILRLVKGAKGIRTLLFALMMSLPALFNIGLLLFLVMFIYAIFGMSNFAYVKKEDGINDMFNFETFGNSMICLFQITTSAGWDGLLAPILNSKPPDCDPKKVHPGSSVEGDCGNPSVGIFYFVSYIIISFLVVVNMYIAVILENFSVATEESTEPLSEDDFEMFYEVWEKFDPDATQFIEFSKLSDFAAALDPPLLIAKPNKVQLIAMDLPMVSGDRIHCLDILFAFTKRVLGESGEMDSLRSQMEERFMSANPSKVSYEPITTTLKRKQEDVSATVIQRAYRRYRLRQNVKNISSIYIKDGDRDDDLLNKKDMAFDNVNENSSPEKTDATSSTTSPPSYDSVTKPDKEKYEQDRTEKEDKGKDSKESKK

Compound	inhibition at 1000 µM (NaV1.7 [1]; 1,000 μM test concentration)	inhibition at 10 µM (NaV1.7 [2])	Papp at 4 h, 50 uM [3]	inhibition at 10 µM (NaV1.7 [1])	inhibition at 3 µM (NaV1.7 [1])	inhibition at 3 µM (NaV1.7 [2])
CC[P+](CC)(CC)CC(=O)Nc1c(C)cccc1C [Compound 1, (2-((2,6-dimethylphenyl)amino)-2-oxoethyl) triethylphosphonium bromide]	< 40%	70 to 95%	< 0.1 ×10⁻⁶ cm/s			
CCC(C(=O)Nc1c(C)cccc1C)[P+](CC)(CC)CC (centres unmarked) [Compound 2, (1-((2,6-dimethylphenyl)amino)-1-oxobutan-2-yl) triethylphosphonium carbonate]		40 to 70%	> 10 ×10⁻⁶ cm/s			
Cc1cccc(C)c1NC(=O)C[P+]1(Cc2ccccc2)CCCCCC1 [Compound 3, 1-benzyl-1-(2-((2,6-dimethylphenyl)amino)-2-oxoethyl) phosphepan-1-ium bromide]		> 95%	< 0.1 ×10⁻⁶ cm/s	40 to 70%		
Cc1cccc(C)c1NC(=O)C[P+]1(Cc2ccccc2)CCCCC1.[Br-] [Compound 4, 1-benzyl-1-(2-((2,6-dimethylphenyl)amino)-2-oxoethyl) phosphinan-1-ium bromide]		> 95%	0.1 to 2 ×10⁻⁶ cm/s	40 to 70%		
Cc1cccc(C)c1NC(=O)C[P+]1(Cc2ccccc2)CCCC1 [Compound 5, 1-benzyl-1-(2-((2,6-dimethylphenyl)amino)-2-oxoethyl) phospholan-1-ium bromide]		70 to 95%	0.1 to 2 ×10⁻⁶ cm/s	< 40%		
CC[P+](CC)(CC(=O)Nc1c(C)cccc1C)CC(=O)Nc1c(C)cccc1C [Compound 6, bis (2-((2,6-dimethylphenyl)amino)-2-oxoethyl) diethyl phosphonium acetate]		70 to 95%	< 0.1 ×10⁻⁶ cm/s			
CCCC[P+](CCCC)(CCCC)CC(=O)Nc1c(C)cccc1C.[Br-] [Compound 7, tri-n-butyl (2-((2,6-dimethylphenyl)amino)-2-oxoethyl) phosphonium bromide]		> 95%	2 to 10 ×10⁻⁶ cm/s			
Cc1cccc(C)c1NC(=O)C[P+](c1ccccc1)(c1ccccc1)c1ccccc1.O=C[O-] [Compound 8, (2-((2,6-dimethylphenyl)amino)-2-oxoethyl) triphenylphosphonium formate]		> 95%	< 0.1 ×10⁻⁶ cm/s		40 to 70%	
CCC(C(=O)Nc1c(C)cccc1C)[P+](c1ccccc1)(c1ccccc1)c1ccccc1 (centres unmarked) [Compound 9, (1-((2,6-dimethylphenyl)amino)-1-oxobutan-2-yl) triphenylphosphonium formate]		> 95%	2 to 10 ×10⁻⁶ cm/s			
CCC(C(=O)Nc1c(C)cccc1C)[P+]1(Cc2ccccc2)CCCCC1 (centres unmarked) [Compound 10, 1-benzyl-1-(1-((2,6-dimethylphenyl)amino)-1-oxobutan-2-yl)phosphinan-1-ium formate]		> 95%	< 0.1 ×10⁻⁶ cm/s		40 to 70%	

Results, then the compound that gave them:

inhibition at 1000 µM (NaV1.7 [1]; 1,000 μM test concentration)	inhibition at 10 µM (NaV1.7 [2])	Papp at 4 h, 50 uM [3]	inhibition at 10 µM (NaV1.7 [1])	inhibition at 3 µM (NaV1.7 [1])	inhibition at 3 µM (NaV1.7 [2])	Compound
		< 0.1 ×10⁻⁶ cm/s			70 to 90%	CCC(C(=O)Nc1c(C)cccc1C(=O)OC)[P+]1(Cc2ccccc2)CCCCC1 (centres unmarked) [Compound 11]
					70 to 90%	CCC(C(=O)Nc1c(C#N)cccc1C(=O)OC)[P+]1(Cc2ccccc2)CCCCC1 (centres unmarked) [Compound 12]
		< 0.1 ×10⁻⁶ cm/s		40 to 70%	> 90%	CCOC(=O)c1cccc(C)c1NC(=O)C[P+]1(Cc2ccccc2)CCCCC1 [Compound 13]
		< 0.1 ×10⁻⁶ cm/s			40 to 70%	Cc1cccc(C(=O)OC(C)(C)C)c1NC(=O)C[P+]1(Cc2ccccc2)CCCCC1 [Compound 14]
		< 0.1 ×10⁻⁶ cm/s		< 40%	70 to 90%	CCOC(=O)c1cccc(F)c1NC(=O)C[P+]1(Cc2ccccc2)CCCCC1 [Compound 15]
					70 to 90%	COC(=O)c1cccc(C)c1NC(=O)C[P+]1(Cc2ccccc2)CCCCC1 [Compound 16]
		> 10 ×10⁻⁶ cm/s		40 to 70%	> 90%	CCOC(=O)c1cccc(Cl)c1NC(=O)C[P+]1(Cc2ccccc2)CCCCC1 [Compound 17]
		< 0.1 ×10⁻⁶ cm/s	40 to 70%		70 to 90%	CCOC(=O)c1cccc(CC)c1NC(=O)C[P+]1(Cc2ccccc2)CCCCC1 [Compound 19]
		< 0.1 ×10⁻⁶ cm/s		< 40%	> 90%	CCOC(=O)c1cccc(OCC)c1NC(=O)C[P+]1(Cc2ccccc2)CCCCC1 [Compound 20]
		< 0.1 ×10⁻⁶ cm/s			< 40%	CC[P+](CC)(CC)CC(=O)Nc1c(C)cccc1C(=O)OC.[Br-] [Compound 21]
		< 0.1 ×10⁻⁶ cm/s			70 to 90%	CCCC[P+](CCCC)(CCCC)CC(=O)Nc1c(C)cccc1C(=O)OC.[Br-] [Compound 22]
		< 0.1 ×10⁻⁶ cm/s			< 40%	COC(=O)c1cccc(C)c1NC(=O)C[P+](c1ccccc1)(c1ccccc1)c1ccccc1 [Compound 23]
